Reference: US10183913B2, “Pyrazole compound” (Sumitomo Dainippon Pharma Co., Ltd., priority 2010, dated 2019)
Structures can show the parent of a compound that is named as a salt. Where two headings read alike, the source gives them in different places. Blank lines part the entries; values can stand above or below the molecule they belong to.

How the values were obtained:
[1] = biological target: T1, human serotonin 2C receptor (h-5-HT2C) (Homo sapiens (Human), UniProt P28335); assay: 5-HT2C receptor agonistic action assay (FLIPR Calcium 4 Assay kit, h-5-HT2C/CHO cells); type: cell-based; conditions: test material 10 μmol/L; 100% = 10 μmol/L 5-HT, −100% = 10 μmol/L SB206553; below 0% = inverse agonistic action
Experimental: 3-1. The Cells and Inoculation Thereof
In the experiment, human serotonin 2C receptor (h-5-HT2C) was expressed in CHO cells (h-5-HT2C/CHO). The cells were incubated with UltraCHO Lipuid (trademark) (manufactured by BioWhitakker) containing 1% FBS, 400 μg/mL Geneticin, 100 U/mL penicillin—100 μg/mL streptomycin (all manufactured by Sigma Aldrich) and 250 μg/mL Zeosin (manufactured by InvivoGen) in an incubator containing 5% CO2. On the day before using the cells, they were detached and collected using 250 μg/mL Trypsin solution (manufactured by Nacalai Tesque), then inoculated in a 96 well flat clear bottom black polystyrene TC-treated microplates (manufactured by Corning) at 40000 cells/well/60 μL in an incubator containing 5% CO2 for 16 hours to 24 hours.
3-2. 5-HT2C Receptor Agonistic Action Assay
The 5-HT2C receptor agonistic action was evaluated with FLIPR Calcium 4 Assay kit (manufactured by Molecular Devices). In specific, to the cells inoculated in the plate were added Component A of FLIPR Calcium 4 Assay kit dissolved in 100 mL of HHBP buffer (1×Hanks buffer, 20 mmol/L HEPES, both manufactured by Gibco) at an amount of 40 μL/well, and the cells were incubated in an incubator containing 5% CO2 for 1 hour. Then, the cells were set in FLIPR TETRA (trademark) (manufactured by Molecular Devices), to the cells was added the test material diluted with HHBP buffer, 2.5 mmol/L Probenecid (manufactured by Sigma) (concentration after dilution: 10 μmol/L) at an amount of 20 μL/well, and the fluorescence was measured. Then, in order to evaluate the antagonistic action of the test material, 20 μL/well of 5-HT solution (manufactured by Sigma, final concentration: 0.1 nmol/L) was further added to the cells, and the fluorescence was measured.
The 5-HT2C receptor agonistic action of each test material was calculated as a rate of fluorescence enhancement wherein 100% was defined as a value when the cells were given 10 μmol/L 5-HT. Furthermore, the 5-HT2C receptor inverse agonistic action was calculated as a rate of fluorescence decay wherein −100% was defined as a value when the cells were given 10 μmol/L SB206553 (manufactured by Sigma Aldrich). A lower value of the 5-HT2C receptor agonistic action of the test material means that the material has a higher antagonistic action. In particular, when the value of the 5-HT2C receptor agonistic action of the test material is below 0%, the material has an inverse agonistic action for 5-HT2C receptor.

[2] = biological target: human serotonin transporter (h-SERT) (Homo sapiens (Human), UniProt P31645); assay: [3H] citalopram binding assay to evaluate human serotonin reuptake inhibitory action (h-SERT binding assay)
Experimental: Citalopram Binding Assay to Evaluate Human Serotonin Reuptake Inhibitory Action
(§1) Preparation of the Cells and Membrane Preparations
In the experiment, human serotonin transporter (h-SERT) was expressed in CHO cells (h-SERT/CHO). The cells were incubated with F12 containing 10% FCS, 500 μg/mL Geneticin and 100 U/mL penicillin—100 μg/mL streptmycin (all manufactured by Sigma Aldrich) in an incubator containing 5% CO2; detached and collected using a SERT buffer [50 mmol/L Tris-HCl comprising 120 mmol/L NaCl and 5 mmol/L KCl (pH=7.4)]; homogenized with a homogenizer manufactured by Teflon (trademark); and then centrifuged (50,000×g, 30 min, 4° C.). The precipitate was suspended again in the appropriate amount of SERT buffer (to give a membrane preparation), and stored at −80° C. until used. The amount of protein in the membrane preparation was assayed by Dye Reagent Concentrate (manufactured by BIO-RAD) using bovine serum albumin (manufactured by Sigma Aldrich) as a standard.
1-2. h-SERT Binding Assay
The [^3H] citalopram binding was measured according to the method disclosed in Owens M. J. et al., J. Pharm. […] The solution was reacted at room temperature for 60 minutes, and then quickly suction-filtered under reduced pressure through a glass fiber filter coated with 0.05% aq. polyethyleneimine. The glass fiber filter was washed twice with […] of the SERT buffer, placed in a plastic vial containing 4 mL of liquid scintillator (ACS-II, manufactured by Amersham) or Ecoscint A (manufactured by National Diagnostics), and the remaining radioactivity on the filter paper was assayed with a liquid scintillation counter.

[3] = biological target: T1, human serotonin 2C receptor (h-5-HT2C); assay: [3H] mesulergine binding assay to evaluate affinity for human 5-HT2C receptor; conditions: h-5-HT2C/CHO membrane preparation, read-out: Test Ex. 2: 5-HT2C receptor binding inhibition constant Ki
Experimental: Mesulergine Binding Assay to Evaluate Affinity for Human 5-HT2C Receptor
as §1
In the experiment, human serotonin 2C receptor (h-5-HT2C) was expressed in CHO cells (h-5-HT2C/CHO). The cells were incubated with UltraCHO Lipuid (trademark) (manufactured by BioWhitakker) containing 1% FBS, 400 μg/mL Geneticin, 100 U/mL penicillin—100 μg/mL streptomycin (all manufactured by Sigma Aldrich) and 250 μg/mL Zeosin (manufactured by InvivoGen) in an incubator containing 5% CO2; detached and collected using 50 mmol/L Tris-HCl (pH=7.4); homogenized with a homogenizer manufactured by Teflon (trademark); and then centrifuged (48,000×g, 25 min, 4° C.). The precipitate was suspended again in the appropriate amount of 50 mmol/L Tris-HCl (to give a membrane preparation), and stored at −80° C. until used. The amount of protein in the membrane preparation was assayed by Dye Reagent Concentrate (manufactured by BIO-RAD) using bovine serum albumin (manufactured by Sigma Aldrich) as a standard.
2-2. 5-HT2C Receptor Binding Assay
A solution of 200 μL in total was prepared by mixing 50 μL of [^3H] mesulergine (manufactured by GE Healthcare) diluted with 50 mmol/L Tris-HCl (pH=7.4) (final concentration: about 2 nmol/L), 149 μL of the h-5-HT2C/CHO membrane preparation (protein amount: 20 μg/well), and 1 μL of the test drug dissolved in dimethylsulfoxide. The solution was reacted at 37° C. for 30 minutes, and then quickly suction-filtered under reduced pressure through a glass fiber filter coated with 1% aq. bovine serum albumin. The glass fiber filter was washed twice with 250 μL of 50 mmol/L Tris-HCl (pH=7.4), placed in a plastic vial containing 4 mL of liquid scintillator (ACS-II, manufactured by Amersham) or Ecoscint A (manufactured by National Diagnostics), and the remaining radioactivity on the filter paper was assayed with a liquid scintillation counter. The non-specific binding of [^3H] mesulergine was defined as a binding amount in the presence of 10 μmol/L SB206553 (manufactured by Sigma Aldrich). The IC50 value was calculated according to Hill analysis, and the binding inhibition constant (Ki) was calculated according to the following formula: Binding inhibition constant (Ki)=IC50/(1+S/Kd) wherein S is a concentration of the added [^3H] mesulergine, and Kd is a binding dissociation constant of [^3H] mesulergine which was calculated from a saturated binding assay using the same cell membrane.

[4] = [3H] citalopram binding, read-out: Test Ex. 1: h-SERT binding inhibition constant Ki

T1 sequence (P28335 whole entry, looked up): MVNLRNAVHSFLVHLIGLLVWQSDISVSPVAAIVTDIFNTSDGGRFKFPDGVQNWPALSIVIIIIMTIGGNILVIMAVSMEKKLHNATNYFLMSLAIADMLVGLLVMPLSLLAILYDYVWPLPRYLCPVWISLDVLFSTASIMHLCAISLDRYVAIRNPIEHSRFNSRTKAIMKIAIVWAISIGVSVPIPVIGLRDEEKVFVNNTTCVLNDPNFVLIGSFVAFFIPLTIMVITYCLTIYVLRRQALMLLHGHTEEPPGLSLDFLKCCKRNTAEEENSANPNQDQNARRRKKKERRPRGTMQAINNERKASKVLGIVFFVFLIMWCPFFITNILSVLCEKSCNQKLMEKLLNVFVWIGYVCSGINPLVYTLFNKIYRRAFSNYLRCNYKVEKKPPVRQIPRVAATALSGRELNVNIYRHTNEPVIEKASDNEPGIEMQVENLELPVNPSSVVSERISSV

- Test Ex. 3: 5-HT2C receptor agonistic action [1]: −94%
Structure (SMILES): CNC(C)c1cc(OCc2cc(F)ccc2F)n(CCC2CCCC2)n1 (single isomer, unassigned; (+)) [Example 477, (+)-1-{1-(2-cyclopentylethyl)-5-[(2,5-difluorobenzyl)-oxy]-1H-pyrazol-3-yl}-N-methylethanamine]

- Test Ex. 3: 5-HT2C receptor agonistic action [1]: −97%
Structure (SMILES): CNCc1cc(OCc2cc(Cl)ccc2F)n(CC(C)C)n1 [Example 256, 1-{5-[(5-chloro-2-fluorobenzyl)oxy]-1-(2-methylpropyl)-1H-pyrazol-3-yl}-N-methylmethanamine]

Structure (SMILES): CNCc1cc(OCc2cc(F)c(F)cc2F)n(CC2CCCC2)n1 [Example 280, 1-{1-(cyclopentylmethyl)-5-[(2,4,5-trifluorobenzyl)-oxy]-1H-pyrazol-3-yl}-N-methylmethanamine]
- Ki [2, 4]: 1.9 nM
- Ki [3]: 9.7 nM

Structure (SMILES): CNCc1cc(OCc2cc(F)ccc2F)n(CC2(C(F)(F)F)CCCC2)n1 [Example 447, 1-(5-[(2,5-difluorobenzyl)oxy]-1-{[1-(trifluoro-methyl)cyclopentyl]methyl}-1H-pyrazol-3-yl)-N-methylmethanamine]
- Ki [2, 4]: 0.5 nM
- Ki [3]: 13 nM

Structure (SMILES): CNCc1cc(OCc2cc(F)c(F)cc2F)n(Cc2ccc(C)cc2)n1 [Example 286, N-methyl-1-{1-(4-methylbenzyl)-5-[(2,4,5-trifluoro-benzyl)oxy]-1H-pyrazol-3-yl}methanamine]
- Ki [2, 4]: 5.5 nM
- Ki [3]: 6.6 nM

Structure (SMILES): CNCc1cc(OCc2cc(F)c(F)cc2F)n(CCC(C)(C)C)n1 [Example 284, 1-{1-(3,3-dimethylbutyl)-5-[(2,4,5-trifluorobenzyl)-oxy]-1H-pyrazol-3-yl}-N-methylmethanamine]
- Ki [2, 4]: 5.7 nM
- Ki [3]: 7.9 nM

Structure (SMILES): CNCc1cc(OCc2ccccc2)n(Cc2ccccc2)n1 [Example 1, 1-[1-Benzyl-5-(benzyloxy)-1H-pyrazol-3-yl]-N-methylmethanamine hydrochloride]
- Ki [2, 4]: 4.9 nM
- Ki [3]: 26 nM

Structure (SMILES): CNCc1nn(CC2CCCCC2)c(OCc2cc(F)ccc2F)c1F.Cl [Example 351, 1-{1-(Cyclohexylmethyl)-5-[(2,5-difluorobenzyl)oxy]-4-fluoro-1H-pyrazol-3-yl}-N-methylmethanamine hydrochloride]
- Ki [2]: 0.98 nM
- Ki [3]: 43 nM

Structure (SMILES): CNCc1cc(OCc2cc(Cl)ccc2F)n(CC2CCCC2)n1 [Example 148, 1-{5-[(5-chloro-2-fluorobenzyl)oxy]-1-(cyclopentylmethyl)-1H-pyrazol-3-yl}-N-methylmethanamine]
- Ki [2, 4]: 4.6 nM
- Ki [3]: 1.9 nM

Structure (SMILES): CNCc1cc(OCc2ccccc2F)n(CCC(C)C)n1 [Example 381, 1-{5-[(2-fluorobenzyl)oxy]-1-(3-methylbutyl)-1H-pyrazol-3-yl}-N-methylmethanamine]
- Ki [2, 4]: 3.4 nM
- Ki [3]: 10 nM

Structure (SMILES): CNCc1cc(OCc2cc(F)ccc2F)n(CC2CCCC2)n1 [Example 147, 1-{1-(cyclopentylmethyl)-5-[(2,5-difluorobenzyl)oxy]-1H-pyrazol-3-yl}-N-methylmethanamine]
- Ki [2, 4]: 0.71 nM
- Ki [3]: 4.8 nM

Structure (SMILES): Fc1ccc(F)c(COc2cc(CNC3CC3)nn2CC2CCCCC2)c1 [Example 342, N-({1-(Cyclohexylmethyl)-5-[(2,5-difluorobenzyl)oxy]-1H-pyrazol-3-yl}methyl)cyclopropanamine]
- Ki [2, 4]: 8.5 nM
- Ki [3]: 14 nM

Structure (SMILES): CNCc1cc(OCc2ccc(F)cc2)n(CC2(C(F)(F)F)CCCC2)n1 [Example 446, 1-(5-[(4-fluorobenzyl)oxy]-1-{[1-(trifluoromethyl)-cyclopentyl]methyl}-1H-pyrazol-3-yl)-N-methylmethanamine]
- Ki [2, 4]: 7.4 nM
- Ki [3]: 19 nM

Structure (SMILES): CNCc1cc(OCc2cc(F)ccc2F)n(Cc2ccc(F)cc2)n1 [Example 219, 1-{5-[(2,5-difluorobenzyl)oxy]-1-(4-fluorobenzyl)-1H-pyrazol-3-yl}-N-methylmethanamine]
- Ki [2, 4]: 1.6 nM
- Ki [3]: 10 nM

Structure (SMILES): CNCc1cc(OCc2ccc(F)cc2C)n(CC2CCCCC2)n1 [Example 31, 1-{1-(Cyclohexylmethyl)-5-[(4-fluoro-2-methylbenzyl)oxy]-1H-pyrazol-3-yl}-N-methylmethanamine]
- Ki [2, 4]: 0.92 nM
- Ki [3]: 5.2 nM

Structure (SMILES): CNCc1cc(OCc2cc(Cl)ccc2F)n(CC2(C(F)(F)F)CCCC2)n1 [Example 448, 1-(5-[(5-chloro-2-fluorobenzyl)oxy]-1-{[1-(trifluoro-methyl)cyclopentyl]methyl}-1H-pyrazol-3-yl)-N-methylmethanamine]
- Ki [2, 4]: 3.8 nM
- Ki [3]: 8.8 nM

Structure (SMILES): CNCc1cc(OCc2cc(F)ccc2F)n(Cc2ccc(C)cc2)n1 [Example 230, 1-{5-[(2,5-difluorobenzyl)oxy]-1-(4-methylbenzyl)-1H-pyrazol-3-yl}-N-methylmethanamine]
- Ki [2, 4]: 2.3 nM
- Ki [3]: 4.9 nM

Structure (SMILES): CNCc1cc(OCc2ccc(F)cc2)n(CC2CCCC2)n1 [Example 137, 1-{1-(cyclopentylmethyl)-5-[(4-fluorobenzyl)oxy]-1H-pyrazol-3-yl}-N-methylmethanamine]
- Ki [2, 4]: 6.6 nM
- Ki [3]: 7.9 nM

Structure (SMILES): CNCc1cc(OCc2ccccc2)n(CCC2CCCC2)n1 [Example 192, 1-[5-(Benzyloxy)-1-(2-cyclopentylethyl)-1H-pyrazol-3-yl]-N-methylmethanamine]
- Ki [2, 4]: 0.91 nM
- Ki [3]: 3.9 nM
